Assay results published in PMC2265467 (PLoS Genetics, 2008).

Columns and labels:
yeast expressing ExoS = assay: yeast growth recovery of yeast expressing ExoS; details: CUP1 promoter; library screened at 50 µM
ExoS ADPRT activity = ExoS ADPRT activity (Pseudomonas aeruginosa, UniProt G3XDA1); assay: biochemical
ADPRT activity of ExoA = ADPRT activity of ExoA (Pseudomonas aeruginosa, UniProt P11439); assay: biochemical
Chain of ADPRT activity of ExoA (P11439 26-638 limits assumed): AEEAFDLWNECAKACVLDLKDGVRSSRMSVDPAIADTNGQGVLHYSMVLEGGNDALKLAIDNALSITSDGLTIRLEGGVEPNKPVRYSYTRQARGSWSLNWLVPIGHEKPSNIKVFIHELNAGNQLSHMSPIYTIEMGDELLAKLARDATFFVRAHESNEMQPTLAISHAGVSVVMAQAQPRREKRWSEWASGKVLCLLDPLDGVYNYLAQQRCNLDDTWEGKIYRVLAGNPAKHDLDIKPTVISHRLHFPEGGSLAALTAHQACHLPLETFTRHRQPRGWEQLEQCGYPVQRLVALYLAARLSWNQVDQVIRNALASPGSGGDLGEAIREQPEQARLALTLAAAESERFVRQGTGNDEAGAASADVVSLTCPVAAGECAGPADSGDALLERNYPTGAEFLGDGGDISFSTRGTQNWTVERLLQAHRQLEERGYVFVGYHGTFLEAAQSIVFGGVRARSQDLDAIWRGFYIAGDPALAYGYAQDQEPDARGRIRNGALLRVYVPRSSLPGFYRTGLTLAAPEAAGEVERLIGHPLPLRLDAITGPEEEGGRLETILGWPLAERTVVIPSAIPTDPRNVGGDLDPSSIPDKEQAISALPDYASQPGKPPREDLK

Chain of ExoS ADPRT activity (G3XDA1 whole entry, looked up): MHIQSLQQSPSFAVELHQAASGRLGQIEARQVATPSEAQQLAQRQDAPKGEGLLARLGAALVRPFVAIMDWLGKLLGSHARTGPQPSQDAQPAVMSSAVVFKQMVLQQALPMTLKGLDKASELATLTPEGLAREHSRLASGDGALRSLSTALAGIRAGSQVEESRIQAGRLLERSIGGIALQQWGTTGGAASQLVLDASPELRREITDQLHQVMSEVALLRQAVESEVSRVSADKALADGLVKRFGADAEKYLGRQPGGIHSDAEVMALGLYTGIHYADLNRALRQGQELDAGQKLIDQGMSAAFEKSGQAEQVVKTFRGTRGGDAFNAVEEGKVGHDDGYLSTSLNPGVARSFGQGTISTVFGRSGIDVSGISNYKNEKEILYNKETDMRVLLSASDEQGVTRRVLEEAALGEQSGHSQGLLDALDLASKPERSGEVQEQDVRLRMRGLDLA

SMILES | restoration of growth of yeast expressing ExoS (in words) (yeast expressing ExoS) | IC50 (ExoS ADPRT activity) [µM] | Ki (ExoS ADPRT activity) [µM] | mode of inhibition of ExoS ADPRT (ExoS ADPRT activity) | IC50 (ADPRT activity of ExoA) [µM]
CCOC(=O)n1c(=O)oc2cc([N+](=O)[O-])ccc21 [0469-0796] | restore yeast growth |  |  |  | 
C=CCOC(=O)C1=C(C)NC(SCC(=O)Nc2nccs2)=C(C#N)C1c1cccs1 (stereo not shown) [4296-1011] | restore yeast growth | 6 |  |  | 
COc1ccc(-c2cc(=O)c3c(O)cc(O[C@@H]4O[C@H](CO[C@@H]5O[C@@H](C)[C@H](O)[C@@H](O)[C@H]5O)[C@@H](O)[C@H](O)[C@H]4O)cc3o2)cc1O [Diosmin, reference compound] | restore yeast growth | 3 |  |  | 
COc1cc(C)c(C(=O)O)c(O)c1 [Everninic acid] | restore yeast growth | 21 |  |  | 
COc1cc(O)c(C(=O)/C=C/c2ccccc2)c(OC)c1 [Flavokawain B] | restore yeast growth |  |  |  | 
CCC1CN(C(=O)Nc2ccc(C)cc2)c2cc(Cl)ccc2O1 (stereo not shown) [exosin-5138] |  | 12 |  |  | 
CCC1CN(C(=O)Nc2ccc(C)cc2)c2ccccc2O1 (stereo not shown) [exosin-5316] |  | 63 |  |  | 
CCC1CN(C(=O)Nc2cccc3c2CCCC3)c2ccccc2O1 (stereo not shown) [exosin-5340] | no protective effect | 129 |  |  | 
CCc1ccc(NC(=O)N2CC(CC)Oc3ccccc32)cc1 (stereo not shown) [exosin] | restore yeast growth |  | 33 ± 3 | competitive inhibitor | 17
